Results as given in ChEMBL document CHEMBL5291721, “A preclinical secondary pharmacology resource illuminates target-adverse drug reaction associations of marketed drugs” (Nat Commun, 2023).

Assays:
[1] = molecular target: Acetylcholinesterase (Homo sapiens, UniProt P22303); assay type: functional
[2] = molecular target: T1, Adenosine receptor A3 (Homo sapiens, UniProt P0DMS8)
T1 sequence (P0DMS8 whole entry): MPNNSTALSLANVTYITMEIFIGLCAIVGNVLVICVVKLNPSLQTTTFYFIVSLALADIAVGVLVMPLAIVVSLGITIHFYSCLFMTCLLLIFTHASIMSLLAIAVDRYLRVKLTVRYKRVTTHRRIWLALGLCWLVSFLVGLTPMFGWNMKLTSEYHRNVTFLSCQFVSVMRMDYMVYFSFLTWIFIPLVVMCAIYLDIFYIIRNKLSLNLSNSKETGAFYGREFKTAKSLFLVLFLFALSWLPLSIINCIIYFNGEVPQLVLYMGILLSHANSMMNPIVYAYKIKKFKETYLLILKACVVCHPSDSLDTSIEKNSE

[3] = molecular target: T2, Alpha-1A adrenergic receptor (Homo sapiens, UniProt P35348); assay type: functional, cell-based
T2 sequence (P35348 whole entry): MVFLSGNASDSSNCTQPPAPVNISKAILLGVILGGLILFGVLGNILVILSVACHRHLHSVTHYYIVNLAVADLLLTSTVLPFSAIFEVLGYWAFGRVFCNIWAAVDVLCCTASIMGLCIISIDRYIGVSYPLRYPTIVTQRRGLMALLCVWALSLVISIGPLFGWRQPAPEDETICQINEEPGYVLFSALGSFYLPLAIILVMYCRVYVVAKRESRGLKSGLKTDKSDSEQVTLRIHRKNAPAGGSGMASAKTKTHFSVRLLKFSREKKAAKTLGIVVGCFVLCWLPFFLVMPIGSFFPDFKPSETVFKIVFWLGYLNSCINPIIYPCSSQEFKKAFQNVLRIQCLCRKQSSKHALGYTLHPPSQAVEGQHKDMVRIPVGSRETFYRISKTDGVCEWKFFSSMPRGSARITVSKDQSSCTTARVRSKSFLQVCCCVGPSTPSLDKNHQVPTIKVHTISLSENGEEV

[4] = molecular target: T2, Alpha-1A adrenergic receptor; assay type: functional, cell-based; remark: listed apart in the source
[5] = molecular target: T3, Alpha-2A adrenergic receptor (Homo sapiens, UniProt P08913)
T3 sequence (P08913 whole entry): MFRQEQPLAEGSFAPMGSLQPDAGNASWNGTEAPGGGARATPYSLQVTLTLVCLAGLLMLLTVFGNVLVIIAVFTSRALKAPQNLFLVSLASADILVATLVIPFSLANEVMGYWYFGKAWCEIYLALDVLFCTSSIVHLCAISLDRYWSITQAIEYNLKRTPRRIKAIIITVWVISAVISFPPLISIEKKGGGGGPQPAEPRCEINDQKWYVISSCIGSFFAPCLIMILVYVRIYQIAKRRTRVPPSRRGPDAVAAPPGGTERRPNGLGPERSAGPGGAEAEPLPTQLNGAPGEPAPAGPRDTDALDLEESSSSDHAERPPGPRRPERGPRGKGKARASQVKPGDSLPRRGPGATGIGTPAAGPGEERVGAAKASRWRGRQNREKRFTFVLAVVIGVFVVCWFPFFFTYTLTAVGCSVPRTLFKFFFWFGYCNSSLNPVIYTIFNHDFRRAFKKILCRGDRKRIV

[6] = molecular target: D(1A) dopamine receptor (Homo sapiens, UniProt P21728)
Chain of D(1A) dopamine receptor (P21728 whole entry): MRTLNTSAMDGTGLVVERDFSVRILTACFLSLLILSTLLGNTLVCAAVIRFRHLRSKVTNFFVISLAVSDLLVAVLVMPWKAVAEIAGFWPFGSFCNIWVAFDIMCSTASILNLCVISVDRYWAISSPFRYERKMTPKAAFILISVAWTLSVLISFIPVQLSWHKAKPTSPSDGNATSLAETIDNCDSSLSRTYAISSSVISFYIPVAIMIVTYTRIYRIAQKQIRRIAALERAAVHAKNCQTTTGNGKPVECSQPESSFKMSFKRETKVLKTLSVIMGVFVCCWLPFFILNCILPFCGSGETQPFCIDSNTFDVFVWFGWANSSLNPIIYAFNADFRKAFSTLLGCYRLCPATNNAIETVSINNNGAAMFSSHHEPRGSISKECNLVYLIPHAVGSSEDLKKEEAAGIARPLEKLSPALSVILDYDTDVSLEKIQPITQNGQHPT

[7] = molecular target: D(3) dopamine receptor (Homo sapiens, UniProt P35462)
Chain of D(3) dopamine receptor (P35462 whole entry): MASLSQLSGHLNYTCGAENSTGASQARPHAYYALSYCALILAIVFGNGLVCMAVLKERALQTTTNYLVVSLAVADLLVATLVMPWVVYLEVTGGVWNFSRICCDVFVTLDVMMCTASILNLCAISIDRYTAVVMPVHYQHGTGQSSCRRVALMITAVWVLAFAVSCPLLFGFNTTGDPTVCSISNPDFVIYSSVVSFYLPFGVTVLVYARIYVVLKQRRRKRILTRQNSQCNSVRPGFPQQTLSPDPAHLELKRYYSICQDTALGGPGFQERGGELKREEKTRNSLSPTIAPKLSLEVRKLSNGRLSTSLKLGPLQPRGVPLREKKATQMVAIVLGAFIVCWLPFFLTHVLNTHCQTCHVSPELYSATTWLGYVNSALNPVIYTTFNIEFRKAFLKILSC

[8] = molecular target: Prothrombin (Homo sapiens, UniProt P00734); assay type: functional
[9] = molecular target: Histamine H3 receptor (Homo sapiens, UniProt Q9Y5N1)
Chain of Histamine H3 receptor (Q9Y5N1 whole entry): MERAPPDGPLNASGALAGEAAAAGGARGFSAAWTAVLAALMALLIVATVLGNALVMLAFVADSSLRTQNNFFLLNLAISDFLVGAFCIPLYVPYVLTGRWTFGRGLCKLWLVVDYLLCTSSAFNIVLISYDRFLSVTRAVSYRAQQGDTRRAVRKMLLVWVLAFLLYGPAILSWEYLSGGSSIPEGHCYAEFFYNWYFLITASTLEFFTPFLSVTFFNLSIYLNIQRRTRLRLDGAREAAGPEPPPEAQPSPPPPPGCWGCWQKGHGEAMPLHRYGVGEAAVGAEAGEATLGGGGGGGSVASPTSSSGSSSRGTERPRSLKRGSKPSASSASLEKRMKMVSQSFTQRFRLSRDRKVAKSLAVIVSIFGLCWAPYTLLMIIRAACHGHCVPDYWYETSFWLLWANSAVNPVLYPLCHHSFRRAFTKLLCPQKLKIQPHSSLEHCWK

[10] = molecular target: 5-hydroxytryptamine receptor 2B (Homo sapiens, UniProt P41595); assay type: functional, cell-based
Chain of 5-hydroxytryptamine receptor 2B (P41595 whole entry): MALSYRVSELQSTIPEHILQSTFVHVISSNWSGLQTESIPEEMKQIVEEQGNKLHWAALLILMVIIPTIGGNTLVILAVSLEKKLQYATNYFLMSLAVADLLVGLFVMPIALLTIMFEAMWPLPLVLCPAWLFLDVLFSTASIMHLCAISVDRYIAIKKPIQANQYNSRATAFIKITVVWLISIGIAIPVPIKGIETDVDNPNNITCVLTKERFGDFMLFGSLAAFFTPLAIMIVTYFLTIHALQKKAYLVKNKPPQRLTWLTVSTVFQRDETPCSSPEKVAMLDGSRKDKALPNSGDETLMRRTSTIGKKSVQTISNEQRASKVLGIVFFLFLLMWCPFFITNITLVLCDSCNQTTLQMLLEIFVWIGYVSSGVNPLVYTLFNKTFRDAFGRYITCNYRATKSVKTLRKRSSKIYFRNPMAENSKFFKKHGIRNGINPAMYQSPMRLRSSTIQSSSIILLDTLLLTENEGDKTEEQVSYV

[11] = molecular target: Vascular endothelial growth factor receptor 2 (Homo sapiens, UniProt P35968); assay type: functional
[12] = molecular target: Mu-type opioid receptor (Homo sapiens, UniProt P35372)
Chain of Mu-type opioid receptor (P35372 whole entry): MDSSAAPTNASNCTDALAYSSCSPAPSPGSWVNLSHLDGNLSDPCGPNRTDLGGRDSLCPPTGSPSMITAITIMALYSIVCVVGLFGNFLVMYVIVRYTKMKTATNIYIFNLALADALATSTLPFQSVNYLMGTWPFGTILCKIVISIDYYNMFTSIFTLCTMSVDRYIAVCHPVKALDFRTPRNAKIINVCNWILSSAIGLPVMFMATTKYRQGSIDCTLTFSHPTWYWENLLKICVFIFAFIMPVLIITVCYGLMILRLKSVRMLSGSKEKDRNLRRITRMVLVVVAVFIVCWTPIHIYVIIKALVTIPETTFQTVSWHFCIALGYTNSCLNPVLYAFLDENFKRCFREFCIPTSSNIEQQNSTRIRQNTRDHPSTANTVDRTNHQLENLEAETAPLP

[13] = molecular target: cGMP-inhibited 3',5'-cyclic phosphodiesterase 3A (Homo sapiens, UniProt Q14432); assay type: functional
[14] = molecular target: 3',5'-cyclic-AMP phosphodiesterase 4A (Homo sapiens, UniProt P27815); assay type: functional
Chain of 3',5'-cyclic-AMP phosphodiesterase 4A (P27815 whole entry): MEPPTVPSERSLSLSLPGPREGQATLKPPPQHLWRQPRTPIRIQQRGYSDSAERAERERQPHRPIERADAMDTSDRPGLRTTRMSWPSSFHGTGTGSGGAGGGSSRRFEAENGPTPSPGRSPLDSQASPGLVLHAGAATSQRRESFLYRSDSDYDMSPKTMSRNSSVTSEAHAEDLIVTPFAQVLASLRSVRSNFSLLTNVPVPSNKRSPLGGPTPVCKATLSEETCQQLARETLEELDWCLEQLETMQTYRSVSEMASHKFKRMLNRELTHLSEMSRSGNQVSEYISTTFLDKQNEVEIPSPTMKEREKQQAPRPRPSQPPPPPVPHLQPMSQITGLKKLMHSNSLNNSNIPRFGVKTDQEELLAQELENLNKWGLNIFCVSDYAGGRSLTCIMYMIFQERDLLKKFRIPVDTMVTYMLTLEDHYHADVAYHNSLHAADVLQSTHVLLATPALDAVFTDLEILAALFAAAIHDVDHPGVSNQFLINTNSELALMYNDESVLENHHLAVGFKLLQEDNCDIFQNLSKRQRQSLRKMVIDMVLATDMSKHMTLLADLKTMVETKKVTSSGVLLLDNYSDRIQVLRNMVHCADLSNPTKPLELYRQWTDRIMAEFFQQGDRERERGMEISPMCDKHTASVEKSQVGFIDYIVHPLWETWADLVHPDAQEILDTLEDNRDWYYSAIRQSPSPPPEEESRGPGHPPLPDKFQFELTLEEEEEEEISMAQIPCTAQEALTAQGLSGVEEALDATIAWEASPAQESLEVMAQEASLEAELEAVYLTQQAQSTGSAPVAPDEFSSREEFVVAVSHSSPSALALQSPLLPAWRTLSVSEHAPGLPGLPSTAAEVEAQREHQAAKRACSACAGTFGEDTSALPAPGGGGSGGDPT

[15] = molecular target: T4, Prostaglandin G/H synthase 1 (Homo sapiens, UniProt P23219); assay type: functional
[16] = molecular target: T4, Prostaglandin G/H synthase 1; assay type: functional; remark: listed apart in the source
[17] = molecular target: Sodium-dependent noradrenaline transporter (Homo sapiens, UniProt P23975)
[18] = molecular target: Sodium-dependent dopamine transporter (Homo sapiens, UniProt Q01959)
Chain of Sodium-dependent dopamine transporter (Q01959 whole entry): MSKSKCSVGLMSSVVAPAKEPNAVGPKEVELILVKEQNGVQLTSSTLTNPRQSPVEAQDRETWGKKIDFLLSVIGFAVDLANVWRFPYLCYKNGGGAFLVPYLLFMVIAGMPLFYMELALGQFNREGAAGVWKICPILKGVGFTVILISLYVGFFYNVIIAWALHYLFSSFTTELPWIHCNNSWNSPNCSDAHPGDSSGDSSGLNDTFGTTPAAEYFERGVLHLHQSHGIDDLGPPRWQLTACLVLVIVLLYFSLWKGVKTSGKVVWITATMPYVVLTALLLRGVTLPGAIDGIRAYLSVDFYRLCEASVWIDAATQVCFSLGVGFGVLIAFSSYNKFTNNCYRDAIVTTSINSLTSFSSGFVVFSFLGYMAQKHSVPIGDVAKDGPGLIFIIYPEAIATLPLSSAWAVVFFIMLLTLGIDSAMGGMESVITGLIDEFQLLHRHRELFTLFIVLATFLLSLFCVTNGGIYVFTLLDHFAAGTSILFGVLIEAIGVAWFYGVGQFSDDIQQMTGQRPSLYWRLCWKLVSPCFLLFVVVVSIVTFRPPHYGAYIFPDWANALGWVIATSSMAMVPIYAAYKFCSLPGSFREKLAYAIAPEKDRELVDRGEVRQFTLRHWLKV

[19] = molecular target: Sodium-dependent serotonin transporter (Homo sapiens, UniProt P31645)
Chain of Sodium-dependent serotonin transporter (P31645 whole entry): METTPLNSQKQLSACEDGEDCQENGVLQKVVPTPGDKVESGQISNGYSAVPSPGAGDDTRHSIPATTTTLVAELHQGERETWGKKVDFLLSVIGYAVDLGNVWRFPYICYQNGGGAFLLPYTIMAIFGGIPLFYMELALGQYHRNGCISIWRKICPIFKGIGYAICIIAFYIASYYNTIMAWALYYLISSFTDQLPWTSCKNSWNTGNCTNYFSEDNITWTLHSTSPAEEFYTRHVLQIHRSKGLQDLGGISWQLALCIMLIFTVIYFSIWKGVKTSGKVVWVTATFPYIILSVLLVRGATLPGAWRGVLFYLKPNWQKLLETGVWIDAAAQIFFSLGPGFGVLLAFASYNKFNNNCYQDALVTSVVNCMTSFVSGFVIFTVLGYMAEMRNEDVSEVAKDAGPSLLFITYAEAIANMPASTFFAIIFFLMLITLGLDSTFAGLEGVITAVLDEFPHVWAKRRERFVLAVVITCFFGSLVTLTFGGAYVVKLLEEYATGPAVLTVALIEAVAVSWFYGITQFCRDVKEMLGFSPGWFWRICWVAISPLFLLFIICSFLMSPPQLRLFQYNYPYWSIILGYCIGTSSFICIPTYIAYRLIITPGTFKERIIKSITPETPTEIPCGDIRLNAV

[20] = molecular target: T5, Thromboxane A2 receptor (Homo sapiens, UniProt P21731); assay type: functional, cell-based
T5 sequence (P21731 whole entry): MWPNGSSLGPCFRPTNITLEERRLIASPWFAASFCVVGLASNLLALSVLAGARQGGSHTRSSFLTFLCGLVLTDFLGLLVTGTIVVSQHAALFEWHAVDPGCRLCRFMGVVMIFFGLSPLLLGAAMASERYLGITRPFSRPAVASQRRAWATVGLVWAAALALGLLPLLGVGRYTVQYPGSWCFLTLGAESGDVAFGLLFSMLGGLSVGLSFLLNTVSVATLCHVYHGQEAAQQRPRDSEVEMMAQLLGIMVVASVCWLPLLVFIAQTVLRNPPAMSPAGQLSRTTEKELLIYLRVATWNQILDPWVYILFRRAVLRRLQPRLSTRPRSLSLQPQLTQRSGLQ

[21] = molecular target: T5, Thromboxane A2 receptor; assay type: functional, cell-based; remark: listed apart in the source
Also: assay procedure not described here.

Chain of Acetylcholinesterase (P22303 whole entry): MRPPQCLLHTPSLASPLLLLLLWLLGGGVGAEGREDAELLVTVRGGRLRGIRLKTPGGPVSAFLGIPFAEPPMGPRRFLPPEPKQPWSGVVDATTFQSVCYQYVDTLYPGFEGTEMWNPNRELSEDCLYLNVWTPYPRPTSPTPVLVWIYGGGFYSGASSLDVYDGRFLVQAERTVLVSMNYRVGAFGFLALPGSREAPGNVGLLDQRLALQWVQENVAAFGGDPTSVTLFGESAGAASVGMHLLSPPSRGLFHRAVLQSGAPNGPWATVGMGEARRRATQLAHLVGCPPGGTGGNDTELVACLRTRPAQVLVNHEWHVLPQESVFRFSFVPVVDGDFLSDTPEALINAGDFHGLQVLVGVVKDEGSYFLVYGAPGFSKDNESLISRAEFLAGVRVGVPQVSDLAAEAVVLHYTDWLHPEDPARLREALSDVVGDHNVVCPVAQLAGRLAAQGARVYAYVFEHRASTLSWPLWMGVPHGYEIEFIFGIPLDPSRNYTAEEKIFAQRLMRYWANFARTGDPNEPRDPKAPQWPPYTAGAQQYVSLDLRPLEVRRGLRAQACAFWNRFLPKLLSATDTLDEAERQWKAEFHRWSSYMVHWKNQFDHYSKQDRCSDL

SMILES | AC50 [1] [µM] | AC50 [2] [µM] | AC50 [3] [µM] | AC50 [4] [µM] | AC50 [5] [µM] | AC50 [6] [µM] | AC50 [7] [µM] | AC50 [8] [µM] | AC50 [9] [µM] | AC50 [10] [µM] | AC50 [11] [µM] | AC50 [12] [µM] | AC50 [13] [µM] | AC50 [14] [µM] | AC50 [15] [µM] | AC50 [16] [µM] | AC50 [17] [µM] | AC50 [18] [µM] | AC50 [19] [µM] | AC50 [20] [µM] | also measured
COCC(=O)O[C@]1(CCN(C)CCCc2nc3ccccc3[nH]2)CCc2cc(F)ccc2[C@@H]1C(C)C [MIBEFRADIL] | > 30 | 14.3 | 25.9 | 1.58 | 23.4 | 10.1 | 0.825 | > 30 | > 30 | > 30 | > 30 | 0.979 | > 30 | > 30 | > 30 | > 30 | 20.2 | 9.53 | 22.8 | 21.9 | AC50 [21]: > 3 µM
NC(=O)N/N=C/c1ccc([N+](=O)[O-])o1 [NITROFURAZONE] | > 30 | > 30 | > 30 | > 30 | > 30 | > 30 | > 30 | > 30 | > 30 | > 30 | > 30 | > 30 | 29.8 | > 30 | > 30 | > 30 | > 30 | > 30 | > 30 | > 30 | AC50 [21]: > 30 µM
CC(C)N1CCOC(c2cccc(C(F)(F)F)c2)C1 (stereo not given) [OXAFLOZANE] | > 30 | > 30 | > 30 | > 30 | > 30 | > 30 | 1.65 | > 30 | > 30 | 1.01 | > 30 | > 30 | > 30 | > 30 | > 30 | > 30 | > 30 | > 30 | > 30 | > 30 | AC50 [21]: > 30 µM
O=C1Nc2ccccc2C1(c1ccc(O)cc1)c1ccc(O)cc1 [OXYPHENISATINE] | > 30 | 5.01 | > 30 | > 30 | > 30 | > 30 | > 30 | > 30 | > 30 | > 30 | > 30 | > 30 | > 30 | > 30 | > 30 | > 30 | > 30 | > 30 | > 30 | > 30 | AC50 [21]: > 30 µM
CN1C(C(=O)Nc2ccccn2)=C(OC(=O)/C=C/c2ccccc2)c2ccccc2S1(=O)=O [PIROXICAM CINNAMATE] | > 30 | > 30 | > 30 | > 30 | > 30 | > 30 | > 30 | > 30 | > 30 | > 30 | > 30 | > 30 | > 30 | > 30 | 16.3 | > 30 | > 30 | > 30 | > 30 | > 30 | AC50 [21]: > 30 µM
Cc1c(C(C)C)c(=O)n(-c2ccccc2)n1C [PROPYPHENAZONE] | > 30 | 21.9 | > 30 | > 30 | > 30 | > 30 | > 30 | > 30 | > 30 | > 30 | > 30 | > 30 | > 30 | > 30 | > 30 | > 30 | > 30 | > 30 | > 30 | > 30 | AC50 [21]: > 30 µM
Cc1ncc(CO)c(CO)c1O [PYRIDOXINE] | > 30 | > 30 | > 30 | > 30 | > 30 | > 30 | > 30 | > 30 | > 30 | > 30 | > 30 | > 30 | > 30 | > 30 | > 30 | > 3 | > 30 | > 30 | > 30 | > 30 | AC50 [21]: > 30 µM
Cc1cn(-c2cc(NC(=O)c3ccc(C)c(Nc4nccc(-c5cnccn5)n4)c3)cc(C(F)(F)F)c2)cn1 [RADOTINIB] | > 10 | 0.298 | > 30 | > 30 | > 30 | > 30 | > 30 | > 30 | > 30 | > 30 | 1.54 | > 3 | > 3 | > 30 | 26 | > 30 | > 30 | > 30 | > 30 | > 30 | AC50 [21]: > 30 µM
COC(=O)N(C)c1c(N)nc(-c2nn(Cc3ccccc3F)c3ncccc23)nc1N [RIOCIGUAT] | > 30 | 13.9 | > 30 | > 30 | > 30 | > 30 | > 30 | > 30 | > 30 | > 30 | > 30 | > 30 | > 30 | > 30 | > 30 | > 30 | > 30 | > 30 | > 30 | > 30 | AC50 [21]: > 30 µM
[H]/N=C(/N)NS(=O)(=O)c1ccc(N)cc1 [SULFAGUANIDINE] | > 30 | > 30 | > 30 | > 30 | > 30 | > 30 | > 30 | > 30 | > 30 | > 30 | > 30 | > 30 | > 30 | > 30 | > 30 | > 30 | > 30 | > 30 | > 30 | > 30 | AC50 [21]: > 30 µM
